Key:
TRPV4 channel receptors [1] = biological target: T1, TRPV4 channel receptors (Bos taurus, UniProt A0A8F4X677); assay: Ca2+ influx through TRPV4 channel receptors, Fura-2 fluorescence on FlexStation, bovine articular chondrocytes; format: cell-based; conditions: Fura-2, FlexStation
T1 construct: obtained using this method in bovine articular chondrocytes; endogenous in cells; host or cells: bovine articular chondrocytes
Description: (§1) Ca^2+ influx mediated through TRPV4 channel receptors can be measured using articular chondrocytes from such species as, but not limited to, human, rat, canine, rabbit, monkey, and bovine, using standard techniques in the art such as, but not limited to, Fura-2 (Invitrogen/Molecular Probes, Eugene, Oreg.) fluorescence using a FlexStation (manufactured by Molecular Devices, Sunnyvale, Calif.). Table 1 lists biological data for several representative compounds obtained using this method in bovine articular chondrocytes.
(§2) All exemplary compounds of the present invention were assessed using at least one of the biological assays presented above. Compounds presented in the Examples had EC50 values of about 0.01 μM to 10 μM as measured by Flex Station using bovine and/or human articular chondrocytes.

TRPV4 channel receptors [2] = biological target: T2, TRPV4 channel receptors (Homo sapiens, UniProt Q9HBA0); assay: Ca2+ influx through TRPV4 channel receptors, Fura-2 fluorescence on FlexStation, human articular chondrocytes; format: cell-based; conditions: Fura-2, FlexStation
T2 construct: obtained using this method in human articular chondrocytes; endogenous in cells; host or cells: human articular chondrocytes
Description: as §1
Table 2 lists biological data for several representative compounds obtained using this method in human articular chondrocytes.
as §2

T2 sequence (Q9HBA0 whole entry): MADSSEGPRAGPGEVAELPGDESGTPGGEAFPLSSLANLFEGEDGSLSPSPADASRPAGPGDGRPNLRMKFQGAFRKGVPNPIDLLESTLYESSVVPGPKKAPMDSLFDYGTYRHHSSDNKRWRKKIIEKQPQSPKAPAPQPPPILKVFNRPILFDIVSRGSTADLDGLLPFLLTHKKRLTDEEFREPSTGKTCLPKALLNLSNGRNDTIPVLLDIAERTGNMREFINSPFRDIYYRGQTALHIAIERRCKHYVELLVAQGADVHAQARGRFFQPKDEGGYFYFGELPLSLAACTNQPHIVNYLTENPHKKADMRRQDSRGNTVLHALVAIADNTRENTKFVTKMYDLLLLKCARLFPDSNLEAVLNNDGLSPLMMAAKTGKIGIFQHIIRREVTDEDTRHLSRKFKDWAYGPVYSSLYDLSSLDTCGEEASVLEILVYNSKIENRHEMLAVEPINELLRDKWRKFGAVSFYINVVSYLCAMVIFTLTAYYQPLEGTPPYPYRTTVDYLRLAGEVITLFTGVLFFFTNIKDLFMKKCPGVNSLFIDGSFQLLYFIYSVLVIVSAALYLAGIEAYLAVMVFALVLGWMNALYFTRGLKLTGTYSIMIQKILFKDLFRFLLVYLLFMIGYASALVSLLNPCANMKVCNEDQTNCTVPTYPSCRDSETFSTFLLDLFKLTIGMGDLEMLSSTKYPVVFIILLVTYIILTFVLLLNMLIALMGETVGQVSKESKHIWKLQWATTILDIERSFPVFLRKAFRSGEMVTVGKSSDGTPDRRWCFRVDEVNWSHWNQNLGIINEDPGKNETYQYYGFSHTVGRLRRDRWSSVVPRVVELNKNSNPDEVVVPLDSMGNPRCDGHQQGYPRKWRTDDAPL
T1 sequence (A0A8F4X677 1-871): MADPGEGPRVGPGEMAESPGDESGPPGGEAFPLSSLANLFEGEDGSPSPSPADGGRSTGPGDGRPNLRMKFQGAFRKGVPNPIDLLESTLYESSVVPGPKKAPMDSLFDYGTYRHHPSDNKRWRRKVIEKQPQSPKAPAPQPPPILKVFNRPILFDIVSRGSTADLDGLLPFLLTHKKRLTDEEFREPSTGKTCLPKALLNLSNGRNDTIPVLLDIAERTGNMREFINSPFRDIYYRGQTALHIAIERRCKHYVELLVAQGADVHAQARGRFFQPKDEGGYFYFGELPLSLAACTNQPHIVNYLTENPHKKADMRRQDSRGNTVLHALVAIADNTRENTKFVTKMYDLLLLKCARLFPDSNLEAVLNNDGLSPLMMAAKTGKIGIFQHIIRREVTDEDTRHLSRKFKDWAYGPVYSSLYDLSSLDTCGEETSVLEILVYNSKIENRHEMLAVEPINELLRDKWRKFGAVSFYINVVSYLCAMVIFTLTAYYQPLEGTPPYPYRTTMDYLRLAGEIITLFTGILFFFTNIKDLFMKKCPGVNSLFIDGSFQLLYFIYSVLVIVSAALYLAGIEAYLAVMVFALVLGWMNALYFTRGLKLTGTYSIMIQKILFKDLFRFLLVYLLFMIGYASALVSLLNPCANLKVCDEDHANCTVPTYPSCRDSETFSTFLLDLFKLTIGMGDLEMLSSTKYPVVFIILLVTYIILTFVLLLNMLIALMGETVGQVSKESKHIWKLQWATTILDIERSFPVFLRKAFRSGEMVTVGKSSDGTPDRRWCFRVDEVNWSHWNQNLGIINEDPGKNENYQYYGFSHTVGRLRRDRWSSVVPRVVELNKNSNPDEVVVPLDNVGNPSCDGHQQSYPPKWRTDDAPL

EC50 (TRPV4 channel receptors [1])	EC50 (TRPV4 channel receptors [2])	SMILES
30 to 60 nM	30 to 90 nM	CC(C)C[C@H](NC(=O)c1cc2ccccc2s1)C(=O)NCCCCNS(=O)(=O)c1ccc(Br)cc1Cl [Example 3, N-((1S)-1-{[(4-{[(4-Bromo-2-chlorophenyl)sulfonyl]amino}butyl)amino]carbonyl}-3-methylbutyl)-1-benzothiophene-2-carboxamide]
70 to 100 nM		CC(C)C[C@H](NC(=O)c1cc2ccccc2s1)C(=O)NCCCCNS(=O)(=O)c1ccc(F)cc1Cl [Example 5, N-((1S)-1-{[(4-{[(2-Chloro-4-fluorophenyl)sulfonyl]amino}butyl)amino]carbonyl}-3-methylbutyl)-1-benzothiophene-2-carboxamide]
	100 to 1000 nM	Cc1c(C(=O)N[C@@H](CC(C)C)C(=O)NCCCCNS(=O)(=O)c2ccc(Cl)cc2Cl)oc2cccnc12 [Example 6, N-((1S)-1-{[(4-{[(2,4-Dichlorophenyl)sulfonyl]amino}butyl)amino]carbonyl}-3-methylbutyl)-3-methylfuro[3,2-b]pyridine-2-carboxamide]
	1000 to 10000 nM	CC(C)C[C@H](NC(=O)c1nc2ccccc2s1)C(=O)NCCCCNS(=O)(=O)c1ccc(F)cc1Cl [Example 50, N-((1S)-1-{[(4-{[(2-Chloro-4-fluorophenyl)sulfonyl]amino}butyl)amino]carbonyl}-3-methylbutyl)-1,3-benzothiazole-2-carboxamide]
